Results taken from patent publication US8883841B2, “Oncogenic ras-specific cytotoxic compound and methods of use thereof” (The Board of Regents of the University of Texas System, priority 2005, dated 2014).

What was measured:
SKOV3 = experiment: Cell viability, SKOV3 ovary cancer cells; format: cell-based
[1] = test system: PKCiota knockdown T29Kt1 cells; experiment: Cell viability in stable PKCiota knockdown T29Kt1 cells; format: cell-based, human
Method: Knockdown of PKCiota suppressed Oncrasin-mediated apoptosis and cytotoxicity. To investigate possible role of PCKiota in Oncrasin-1 mediated cytotoxicity, PKCiota was knocked down in H460 cells by using oligo ribonucleotides. H460 cells were treated with 200 pM PKCiota siRNA for 24 h, and then with DMSO or 1 μM Oncrasin for another 12 h. After that, cells harvested for analysis of apoptosis by fluorescence-activated cell sorting (FACS) and for expression of PKCiota by Western blot analysis. […] To further study the effect of atypical PKC in Oncrasin-induced cytotoxicity, the inventors obtained plasmids encoding PKCiota and PKCzeta siRNA from Origene Corporation and made stable PKCiota and PKCzeta knockdown T29Kt1 cells. […] The IC50 in PKCiota knockdown T29Kt1 cells were 100 fold higher than parental T29K cells. […] Thus, compounds with synthetic lethality for PKCiota might be useful for treatment of those cancers.

O=Cc1cn(Cc2ccc(Cl)cc2)c2ccccc12 [Oncrasin K001, 1H-Indole-3-carboxaldehyde, 1-[(4-chlorophenyl)methyl]-(9CI)]
IC50 (−LogM) (SKOV3): 5.8 −LogM | susceptibility of stable PKCiota knockdown T29Kt1 cells ([1]; cell viability analysis): almost complete resistance | IC50 in PKCiota knockdown T29Kt1 cells relative to parental T29K cells ([1]; stable knockdown): 100 fold
